Assay results as given in publication PMC2880850 (Journal of medicinal chemistry, 2010).
pEC50, pIC50: −log10 of the molar value. “Also recorded” adds a separate entry of the source.

Legend:
[1] = test system: MDA-MB-231 breast cancer cells; conditions: read-out: EC50 in killing MDA-MB-231 breast cancer cells; cited from earlier work
[2] = test system: B6 transgenic mice overexpressing human Bcl-2 in B-cells; experiment: Bcl-2 transgenic mice, spleen weight; assay type: in vivo, mouse; conditions: single i.p. injection at 42 mg/kg, 24 hours
[3] = biological target: GST–Bcl-XL ΔTM protein (Homo sapiens, UniProt Q07817); conditions: read-out: IC50 binding to Bcl-XL in FPA assays; cited from earlier work
GST–Bcl-XL ΔTM protein, sequence (Q07817 1-211 limits assumed, stated change not applied): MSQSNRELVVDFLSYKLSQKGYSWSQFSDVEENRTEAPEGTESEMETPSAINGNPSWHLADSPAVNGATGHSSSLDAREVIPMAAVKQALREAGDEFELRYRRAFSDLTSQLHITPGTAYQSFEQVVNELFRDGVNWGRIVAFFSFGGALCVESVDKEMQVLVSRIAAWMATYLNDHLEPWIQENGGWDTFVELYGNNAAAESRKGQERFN

[4] = test system: BP3 cell line; experiment: Apoptosis assay, Annexin V-FITC and propidium iodide, BP3; assay type: cell-based, human
[5] = test system: Bax/Bak double knockout MEF cells (MEF/DKO); experiment: FITC-Annexin V/PI assay, Bax/Bak double knockout MEF; assay type: cell-based, mouse; conditions: for toxicity in MEF/DKO cells: 30 μM, FITC-Annexin V/PI
[6] = Chemical stability at different temperatures; assay type: physicochemical
[7] = biological target: Bcl-XL (Homo sapiens, UniProt Q07817); experiment: Isothermal Titration Calorimetry assay; assay type: binding; conditions: Kd ratio
Bcl-XL, sequence (Q07817 whole entry): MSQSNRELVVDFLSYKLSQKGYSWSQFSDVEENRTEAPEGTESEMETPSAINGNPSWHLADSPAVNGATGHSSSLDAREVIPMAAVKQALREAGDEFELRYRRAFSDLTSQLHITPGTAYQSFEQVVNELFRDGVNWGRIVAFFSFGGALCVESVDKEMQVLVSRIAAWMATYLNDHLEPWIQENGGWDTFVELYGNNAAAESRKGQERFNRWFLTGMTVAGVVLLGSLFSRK

[8] = test system: M2182 tumor xenografts

Compound: Cc1cc2c(C(C)C)c(O)c(O)c(C=O)c2c(O)c1-c1c(C)cc2c(C(C)C)c(O)c(O)c(C=O)c2c1O (single isomer, unassigned) [(+) 1, Gossypol]
- pEC50 [1]: ~5.00

Compound: Cc1cc2c(C(=O)NC[C@H](C)c3ccccc3)c(O)c(O)cc2c(O)c1-c1c(C)cc2c(C(=O)NC[C@H](C)c3ccccc3)c(O)c(O)cc2c1O (single isomer, unassigned) [Compound 12]
- spleen weight reduction [2]: weak in vivo activity

Compound: Cc1cc2c(C(C)C)c(O)c(O)c(C=O)c2c(O)c1-c1c(C)cc2c(C(C)C)c(O)c(O)c(C=O)c2c1O (single isomer, unassigned) [(−) 1, Gossypol]
- pEC50 [1]: ~5.70
- pIC50 [3]: 6.32

Compound: CN(C)CC[C@H](CSc1ccccc1)Nc1ccc(S(=O)(=O)NC(=O)c2ccc(N3CCN(Cc4ccccc4-c4ccc(Cl)cc4)CC3)cc2)cc1[N+](=O)[O-] [ABT-737]
- apoptosis induction / cytotoxic activity against BP3 cell line [4]: no cytotoxic activity

Compound: Cc1cc2c(C(=O)NC[C@@H](C)c3ccccc3)c(O)c(O)cc2c(O)c1-c1c(C)cc2c(C(=O)NC[C@@H](C)c3ccccc3)c(O)c(O)cc2c1O [Compound 14, (R)-1,1′,6,6′,7,7′-hexahydroxy-3,3′-dimethyl-N^5-((S)-2-phenylpropyl)-N^5′-((S)-2-phenylpropyl)-2,2′-binaphthyl-5,5′-dicarboxamide]
- toxicity in MEF/DKO cells [5]: almost equally effective in killing both MEF/WT and MEF/DKO

Compound: Cc1cc2c(C(=O)NC[C@H](C)c3ccccc3)c(O)c(O)cc2c(O)c1-c1c(C)cc2c(C(=O)NC[C@H](C)c3ccccc3)c(O)c(O)cc2c1O (single isomer, unassigned) [Compound 11]
- chemical stability [6]: better chemical stability compared to other compounds (12–14)
- cytotoxicity against bax−/−bak−/− cells [5]: less cytotoxicity against bax^−/−bak^−/− cells compared to compound 4; also recorded: little cytotoxicity
- toxicity in MEF/DKO cells [5]: slight toxicity
- times more potent than other isomers 12–14 in ITC assay [7]: 4–20 times
- spleen weight reduction [2]: more than 30%
- inhibition of tumor growth ([8]; 5 mg/kg i.p. every 2 days, nine injections, both flanks): near complete inhibition of tumor growth
- tolerability of treatment ([8]; mouse, in vivo, ip): no apparent signs of toxicity
